Results as given in US8435962B2, “Triacetyl-3-hydroxyphenyladenosine and its use for regulating blood fat” (Institute of Mataria Medica, Chinese Academy of Medical …, priority 2009, dated 2013).
Where two headings read alike, the source gives them in different places.

Assays:
hyperlipidemia hamsters [1] = experiment: Effects on hepatic SOD activity and MDA concentration in hyperlipidemic hamsters' livers; type: in vivo, hamster; details: for hepatic SOD / hepatic MDA: 4 weeks
Description: (§2) After a week of accommodation, except control group (n=12) all the hamsters (n=72) were fed with high-fat laboratory chow.
(§3) After four weeks high-fat diet modeling, rats were treated with different drugs by intragastric administration. Control animals received an equal volume of vehicle.
(§4) At the end of 4 weeks drug treatment, animals were fasted for 12 hours (10 of each group). The next day, they were anesthetized by intraperitoneal injection of pentobarbitale sodium (45 mg/kg). Blood samples were collected from the abdominal aorta within 15 min, and plasma was separated. Plasma TC, TG, HDL-C, LDL-C, ALT, FFA were detected. Liver and the retroperitoneal fat were separated and weighed, the liver and fat index were calculated. Liver SOD and MDA were detected by kit after homogenized. The left hamsters (10 each group) drug treatment was withdrawn while high-fat diet modeling continued. Two weeks later, blood sample was collected from the orbit and serum TC and TG were detected.

hyperlipidemia hamsters [2] = experiment: Effects on plasma lipid in hyperlipidemia hamsters (high-fat diet); type: in vivo, hamster; details: for HDL-C / HDL/LDL / LDL-C / TC / TG: 4 weeks;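 as to all read-outs here: hamsters given high-fat chow for four weeks, then dosed by gavage, plasma lipids measured in abdominal aortic blood after a 12 h fast, compared with vehicle-treated controls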
Description: as §2, §3, §4

hyperlipidemia hamsters [3] = details: hamster, in vivo, 50 mg/kg
Description: as §2, §3, §4

hyperlipidemia rats [4] = experiment: Effects on retroperitoneal fat weight of hyperlipidemic rats; type: in vivo, rat; details: for Fat weight (retroperitoneal fat): hyperlipidemic rats, 4 weeks
Description: (§1) Control animals received an equal volume of vehicle.

hyperlipidemia rats [5] = experiment: Effects on plasma lipid in hyperlipidemia rats (high-fat diet); type: in vivo, rat; details: for FFA / HDL-C / HDL/LDL / LDL-C / TC / TG: 4 weeks;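 as to all read-outs here: rats kept on high-fat chow for 4 weeks before dosing, serum taken from abdominal aorta after a 12 h fast at end of treatment, controls given vehicle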
Description: (§5) After a week of accommodation, except control group (20 rat), all the rats (120 rats) were fed with high-fat laboratory chow.
as §3
(§6) At the end of 4 weeks drug treatment, animals were fasted for 12 hours before anesthetizing by intraperitoneal injection of pentobarbitale sodium (45 mg/kg), and anticoagulated by 100 U/kg heparin through caudal vein injection. Blood samples were collected from the abdominal aorta within 15 min, and serum was separated. Serum TC, TG, HDL-C, LDL-C, ALT, FFA were detected. Liver and the fat pad behind the belly were separated and weighed, the liver and retroperitoneal fat were weighed too. […] The left rats (10 rats each group) drug treatment was withdrawn while high-fat diet modeling continued. Two weeks later, blood sample was collected from the orbit, and serum TC, TG were detected.

hyperlipidemia rats [6] = experiment: Effects on liver weight and serum ALT activity of hyperlipidemia rats; details: 4 weeks
Description: as §5, §3, §6

hyperlipidemia hamsters [7] = experiment: Serum lipid level in hyperlipidemic hamsters after drug discontinuance (2 weeks); type: in vivo, hamster; details: for TC / TG / serum lipid levels after drug discontinuance: hamsters; for TC / TG: 2 weeks after drug discontinuance, high-fat diet continued; for serum lipid levels after drug discontinuance: vs model group, in words
Description: as §2, §3, §4

hyperlipidemia rats [8] = experiment: Effects on hepatic SOD activity and MDA content of hyperlipidemia rats; type: in vivo, rat; details: for hepatic MDA / hepatic SOD: 4 weeks
Description: as §1

hyperlipidemia rats [9] = details: rat, in vivo, 50 mg/kg
Description: as §5, §3, §6

hyperlipidemia rats [10] = experiment: Serum lipid of hyperlipidemia rats after withdrawal from drugs for 2 weeks; type: in vivo, rat; details: for TC / TG: rats, 2 weeks after drug withdrawal, high-fat diet continued
Description: as §5, §3, §6

hyperlipidemia hamsters [11] = experiment: Effect on retroperitoneal fat of hyperlipidemia hamsters; type: in vivo, hamster
Description: as §2, §3, §4

hyperlipidemia hamsters [12] = experiment: Effects on serum ALT activity in hyperlipidemic hamsters; details: for ALT: hyperlipidemic hamsters, 4 weeks
Description: as §2, §3, §4

[13] = hyperlipidemia rats, 3 mg/kg intragastric
[14] = hyperlipidemia rats, 6 mg/kg intragastric
[15] = hyperlipidemia rats, 12 mg/kg intragastric

## CC(C)OC(=O)C(C)(C)Oc1ccc(C(=O)c2ccc(Cl)cc2)cc1 [Fenofibrate, reference compound]
Hyperlipidemia hamsters [1]; 50 mg/kg intragastric
  hepatic SOD: 94.0 ± 16.3 U/g pr
Hyperlipidemia hamsters [2]; 50 mg/kg intragastric
  HDL-C: 1.48 ± 0.40 mmol/L
  HDL/LDL: 0.50 ± 0.13
  LDL-C: 3.04 ± 0.82 mmol/L
  TC: 4.76 ± 1.58 mmol/L
  TG: 3.80 ± 1.04 mmol/L
Hyperlipidemia hamsters [3]
  ALT: 97.3 ± 37.8 U/L
Hyperlipidemia rats [4]; 50 mg/kg intragastric
  Fat weight (retroperitoneal fat): 0.68 ± 0.16 g/100 g body weight
Hyperlipidemia rats [5]; 50 mg/kg intragastric
  FFA: 1.13 ± 0.30 mmol/L
  HDL-C: 0.59 ± 0.17 mmol/L
  HDL/LDL: 0.53 ± 0.16
  LDL-C: 1.16 ± 0.28 mmol/L
  TC: 2.23 ± 0.53 mmol/L
  TG: 0.70 ± 0.19 mmol/L
Hyperlipidemia rats [6]; 'rat' in hamster Table 9, 50 mg/kg intragastric
  Liver weight: 4.08 ± 0.36 g/100 g body weight
Hyperlipidemia rats [6]; hyperlipidemia rats, 50 mg/kg intragastric
  Liver weight: 4.08 ± 0.36 g/100 g body weight
Hyperlipidemia hamsters [7]; 50 mg/kg
  TC: 5.29 ± 2.13 mmol/L
  TG: 4.16 ± 0.86 mmol/L
Hyperlipidemia rats [8]; 50 mg/kg intragastric
  hepatic MDA: 9.35 ± 2.4 nmol/mg protein
  hepatic SOD: 103.6 ± 27.9 U/g pr
Hyperlipidemia rats [9]
  serum ALT: 40.3 ± 18.0 U/L
Hyperlipidemia rats [10]; 50 mg/kg
  TC: 2.08 ± 0.49 mmol/L
  TG: 1.03 ± 0.19 mmol/L

## CCC(C)(C)C(=O)O[C@H]1C[C@@H](C)C=C2C=C[C@H](C)[C@H](CC[C@@H]3C[C@@H](O)CC(=O)O3)[C@H]21 [Simvastatin, reference compound]
Hyperlipidemia hamsters [1]; 2 mg/kg intragastric
  hepatic MDA: 4.48 ± 0.96 nmol/mg protein
  hepatic SOD: 94.6 ± 38.0 U/g pr
Hyperlipidemia hamsters [2]; 2 mg/kg intragastric
  HDL-C: 1.12 ± 0.21 mmol/L
  HDL/LDL: 0.45 ± 0.12
  LDL-C: 2.57 ± 0.53 mmol/L
  TC: 4.46 ± 1.63 mmol/L
  TG: 3.20 ± 1.70 mmol/L
Hyperlipidemia rats [4]; 2 mg/kg intragastric
  Fat weight (retroperitoneal fat): 0.70 ± 0.28 g/100 g body weight
Hyperlipidemia rats [5]; 2 mg/kg intragastric
  FFA: 0.96 ± 0.39 mmol/L
  HDL-C: 0.59 ± 0.13 mmol/L
  HDL/LDL: 0.50 ± 0.16
  LDL-C: 1.24 ± 0.24 mmol/L
  TC: 2.22 ± 0.36 mmol/L
  TG: 0.76 ± 0.21 mmol/L
Hyperlipidemia rats [6]; 'rat' in hamster Table 9, 2 mg/kg intragastric
  Liver weight: 3.96 ± 0.93 g/100 g body weight
Hyperlipidemia rats [6]; hyperlipidemia rats, 2 mg/kg intragastric
  Liver weight: 3.96 ± 0.93 g/100 g body weight
Hyperlipidemia hamsters [7]; 2 mg/kg
  TC: 4.91 ± 1.18 mmol/L
  TG: 4.58 ± 1.01 mmol/L
Hyperlipidemia rats [8]; 2 mg/kg intragastric
  hepatic MDA: 9.29 ± 2.73 nmol/mg protein
  hepatic SOD: 99.5 ± 20.2 U/g pr
Hyperlipidemia hamsters [11]; 2 mg/kg intragastric, 4 weeks
  retroperitoneal fat: 0.97 ± 0.19 g/100g
Hyperlipidemia rats [10]; 2 mg/kg
  TC: 2.14 ± 0.33 mmol/L
  TG: 0.94 ± 0.24 mmol/L

## CC(=O)OC[C@H]1O[C@@H](n2cnc3c(Nc4cccc(O)c4)ncnc32)[C@H](OC(C)=O)[C@@H]1OC(C)=O [WS070117, O^2′,O^3′,O^5′-tri-acetyl-N^6-(3-hydroxylphenyl)adenosine]
Hyperlipidemia hamsters [1]; 3 mg/kg intragastric
  hepatic MDA: 4.8 ± 1.2 nmol/mg protein
  hepatic SOD: 84.0 ± 19.6 U/g pr
Hyperlipidemia hamsters [1]; 6 mg/kg intragastric
  hepatic MDA: 4.23 ± 0.72 nmol/mg protein
  hepatic SOD: 95.1 ± 31.6 U/g pr
Hyperlipidemia hamsters [1]; 12 mg/kg intragastric
  hepatic MDA: 4.6 ± 0.92 nmol/mg protein
  hepatic SOD: 91.9 ± 22.9 U/g pr
Hyperlipidemia hamsters [1]; in words
  MDA concentration: lower than the model group
Hyperlipidemia hamsters [2]; 3 mg/kg intragastric
  HDL-C: 1.24 ± 0.26 mmol/L
  HDL/LDL: 0.37 ± 0.11
  LDL-C: 3.68 ± 1.44 mmol/L
  TC: 4.35 ± 0.93 mmol/L
  TG: 4.26 ± 1.52 mmol/L
Hyperlipidemia hamsters [2]; 6 mg/kg intragastric
  HDL-C: 1.14 ± 0.18 mmol/L
  HDL/LDL: 0.40 ± 0.09
  LDL-C: 3.00 ± 0.90 mmol/L
  TC: 4.19 ± 1.14 mmol/L
  TG: 3.67 ± 1.46 mmol/L
Hyperlipidemia hamsters [2]; 12 mg/kg intragastric
  HDL-C: 1.24 ± 0.40 mmol/L
  HDL/LDL: 0.59 ± 0.31
  LDL-C: 2.26 ± 0.47 mmol/L
  TC: 3.60 ± 1.84 mmol/L
  TG: 3.44 ± 1.29 mmol/L
Hyperlipidemia hamsters [2]; after treatment, in words
  blood TC, TG and LDL-C: decreased
  rate HDL-C/LDL-C: increased
Hyperlipidemia hamsters [12]; 3 mg/kg intragastric
  ALT: 100.7 ± 38.2 U/L
Hyperlipidemia hamsters [12]; 6 mg/kg intragastric
  ALT: 91.7 ± 23.1 U/L
Hyperlipidemia hamsters [12]; 12 mg/kg intragastric
  ALT: 95.2 ± 34.8 U/L
Hyperlipidemia hamsters [12]; text of hamster Example 3 says 'hyperlipidemic rats', in words
  serum ALT activity: slightly reduced
Hyperlipidemia rats [4]; hyperlipidemia rats, after administration, in words
  weight of rats' retroperitoneal fat: obviously decreased
Hyperlipidemia rats [4]; 3 mg/kg intragastric
  Fat weight (retroperitoneal fat): 0.67 ± 0.33 g/100 g body weight
Hyperlipidemia rats [4]; 6 mg/kg intragastric
  Fat weight (retroperitoneal fat): 0.67 ± 0.12 g/100 g body weight
Hyperlipidemia rats [4]; 12 mg/kg intragastric
  Fat weight (retroperitoneal fat): 0.64 ± 0.22 g/100 g body weight
Hyperlipidemia rats [5]; 3 mg/kg intragastric
  FFA: 1.04 ± 0.24 mmol/L
  HDL-C: 0.58 ± 0.10 mmol/L
  HDL/LDL: 0.43 ± 0.12
  LDL-C: 1.38 ± 0.27 mmol/L
  TC: 2.39 ± 0.34 mmol/L
  TG: 0.67 ± 0.15 mmol/L
Hyperlipidemia rats [5]; 6 mg/kg intragastric
  FFA: 0.94 ± 0.17 mmol/L
  HDL-C: 0.59 ± 0.18 mmol/L
  HDL/LDL: 0.52 ± 0.19
  LDL-C: 1.19 ± 0.18 mmol/L
  TC: 2.11 ± 0.24 mmol/L
  TG: 0.52 ± 0.13 mmol/L
Hyperlipidemia rats [5]; 6 mg/kg, in words
  effect on rats FFA: significant effect
Hyperlipidemia rats [5]; 12 mg/kg intragastric
  FFA: 0.97 ± 0.27 mmol/L
  HDL-C: 0.56 ± 0.10 mmol/L
  HDL/LDL: 0.47 ± 0.13
  LDL-C: 1.24 ± 0.20 mmol/L
  TC: 2.30 ± 0.29 mmol/L
  TG: 0.55 ± 0.19 mmol/L
Hyperlipidemia rats [5]; after treatment, in words
  HDL-C/LDL-C: increased
  blood TC, TG and LDL-C: decreased
Hyperlipidemia rats [6]; 'rat' in hamster Table 9, 3 mg/kg intragastric
  Liver weight: 3.22 ± 0.48 g/100 g body weight
Hyperlipidemia rats [6]; 'rat' in hamster Table 9, 6 mg/kg intragastric
  Liver weight: 3.21 ± 0.38 g/100 g body weight
Hyperlipidemia rats [6]; 'rat' in hamster Table 9, 12 mg/kg intragastric
  Liver weight: 3.26 ± 0.54 g/100 g body weight
Hyperlipidemia rats [6]; [13]
  Liver weight: 3.22 ± 0.48 g/100 g body weight
  serum ALT: 42.9 ± 13.7 U/L
Hyperlipidemia rats [6]; [14]
  Liver weight: 3.21 ± 0.38 g/100 g body weight
  serum ALT: 41.6 ± 19.8 U/L
Hyperlipidemia rats [6]; [15]
  Liver weight: 3.26 ± 0.54 g/100 g body weight
  serum ALT: 42.0 ± 16.6 U/L
Hyperlipidemia hamsters [7]; 3 mg/kg
  TC: 5.34 ± 1.32 mmol/L
  TG: 4.36 ± 1.27 mmol/L
Hyperlipidemia hamsters [7]; 6 mg/kg
  serum lipid levels after drug discontinuance: significantly lower
  TC: 5.02 ± 1.35 mmol/L
  TG: 4.16 ± 0.77 mmol/L
Hyperlipidemia hamsters [7]; 12 mg/kg
  serum lipid levels after drug discontinuance: significantly lower
  TC: 4.61 ± 1.11 mmol/L
  TG: 3.82 ± 0.66 mmol/L
Hyperlipidemia hamsters [7]; hyperlipidemic hamsters
  time hypolipidemic effect lasted after drug discontinuance: ≥ 2 weeks
Hyperlipidemia rats [8]; 3 mg/kg intragastric
  hepatic MDA: 8.51 ± 3.32 nmol/mg protein
  hepatic SOD: 93.3 ± 37.5 U/g pr
Hyperlipidemia rats [8]; 6 mg/kg intragastric
  hepatic MDA: 8.71 ± 2.83 nmol/mg protein
  hepatic SOD: 102.0 ± 24.4 U/g pr
Hyperlipidemia rats [8]; 12 mg/kg intragastric
  hepatic MDA: 8.29 ± 2.78 nmol/mg protein
  hepatic SOD: 107.7 ± 26.4 U/g pr
Hyperlipidemia rats [8]; after administration, in words
  hepatic SOD activity: significantly increased
Hyperlipidemia rats [8]; in words
  hepatic MDA content: decreased
Hyperlipidemia hamsters [11]; 3 mg/kg intragastric, 4 weeks
  retroperitoneal fat: 1.26 ± 0.34 g/100g
Hyperlipidemia hamsters [11]; 6 mg/kg intragastric, 4 weeks
  retroperitoneal fat: 1.23 ± 0.23 g/100g
Hyperlipidemia hamsters [11]; 12 mg/kg intragastric, 4 weeks
  retroperitoneal fat: 1.31 ± 0.27 g/100g
Hyperlipidemia hamsters [11]; after treatment, in words
  retroperitoneal fat: decreased
Hyperlipidemia rats [10]; hyperlipidemia rats
  time blood-fat regulatory effect is sustained after withdrawal: more than 2 weeks
Hyperlipidemia rats [10]; hyperlipidemia rats, in words
  serum TC content after withdrawal from drugs for 2 weeks: significantly lower than that of the model group
Hyperlipidemia rats [10]; 3 mg/kg
  TC: 2.12 ± 0.45 mmol/L
  TG: 1.04 ± 0.19 mmol/L
Hyperlipidemia rats [10]; 6 mg/kg
  TC: 2.02 ± 0.43 mmol/L
  TG: 1.03 ± 0.22 mmol/L
Hyperlipidemia rats [10]; 12 mg/kg
  TC: 2.15 ± 0.32 mmol/L
  TG: 1.01 ± 0.38 mmol/L
